US8835134B2, “Cycloastragenol monoglucoside, preparation, pharmaceutical composition and application thereof” (Tianjin Institute of Pharmaceutical Research, priority 2007, dated 2014)

Tested on: anesthetized open-chest dogs
Assay: Hemodynamics of anesthetized open-chest dogs, intravenous infusion
Assay type: in vivo, mongrel dogs
Conditions: 0.3 mg/kg iv
Experimental: The animals were anesthetized by intravenous injection of 30 mg/kg sodium pentobarbital, tracheally intubated, and mechanically ventilated with positive air pressure. Left thoracotomy was performed through the fourth intercostal space and the heart was suspended in a pericardial cradle, the aortic root was isolated and a probe of blood flow meter (12 or 14 mm in diameter) was fixed to measure the aortic blood flow as a representation of cardiac output (CO), the circumflex branch of left coronary artery was isolated and a probe of blood flow meter (2 or 2.5 mm in diameter) was fixed to measure the coronary blood flow (CBF). A polyethylene catheter filled with heparin physiological saline was inserted through cardiac apex into the left ventricle to measure the left ventricular pressure (LVP) and left ventricular end-diastolic pressure (LVEDP), Peak positive and peak negative first derivatives of the LVP (+ LVdp/dt and − LVdp/dt) were calculated with the Acknowledge software. The systolic blood pressure (SBP), diastolic blood pressure (DBP) and mean arterial pressure (MAP) were measured by polyethylene catheter via the femoral artery, ECG □ was measured by a AC-601G ECG amplifier. The above-mentioned analog signal was input into a data acquisition workstation (MP100, BIOPAC Systems, USA) to a computer running Acknowledge (version 3.7.1).
After surgery, various indexes before administration were recorded until the indexes were stable, and then intravenous infusion administration was conducted. Thirty dogs were divided into five groups (six dogs in each group), the experiment groups were given 0.15, 0.3, 0.6 mg/kg of ASP-[…] respectively, the normal control group was given 1 ml/kg of solvent, and the positive control group was given 0.3 mg/kg of astragaloside IV. The delivery volumes were 15 ml for each dog was and the delivery velocity was 1 ml/min. The indexes were recorded at 5, 10, 15, 20, 30, 45, 60, 90 and 120 mins after drug administration. At the end of experiment, the hearts were excised and weighted. The myocardial blood flow for per hectogram (CF), coronary resistance (CR), cardiac index (CI), left ventricular work (LVW) and total peripheral resistance (TPR) were calculated according to the following formulae: CF=CBF×[…]/heart weight CR=MAP/CF CI=CO/0.11×(body weight)^2/3 LVW=CO×(MAP−5)×1.052×0.0136 TPR=MAP×79.92/CO
Data are expressed as mean±SD ( x±s), the paired t-test was used to compare the significance between before and after administration, the unpaired t-test was adopted for comparison between groups.

## CC(C)(O)[C@@H]1CC[C@](C)([C@H]2[C@@H](O)C[C@@]3(C)[C@@H]4C[C@H](O[C@@H]5O[C@H](CO)[C@@H](O)[C@H](O)[C@H]5O)[C@H]5C(C)(C)[C@@H](O[C@@H]6OC[C@@H](O)[C@H](O)[C@H]6O)CC[C@@]56C[C@@]46CC[C@]23C)O1 [astragaloside IV, reference compound]
30 min after administration
  TPR: 5430 ± 1302 dyn · s/cm^5
  TPR change vs before administration: (206 ± 718) dyn · s/cm^5
  dp/dt: 1140 ± 92 mmHg/s
  dp/dt change vs before administration: (85 ± 84) mmHg/s
  −dp/dt: −807 ± 124 mmHg/s
  −dp/dt change vs before administration: (28 ± 160) mmHg/s
45 min after administration
  CF: 54.0 ± 15.0 ml/min/100 g
  CF change vs before administration: (−2.9 ± 7.7) ml/min/100 g
  CI: 2.08 ± 0.52 L/min/m^2
  CI change vs before administration: (−0.06 ± 0.19) L/min/m^2
  CO: 1.17 ± 0.32 L/min
  CO change vs before administration: (−0.03 ± 0.10) L/min
  CR: 1.44 ± 0.50 mmHg/ml/min/100 g
  CR change vs before administration: (0.04 ± 0.25) mmHg/ml/min/100 g
  LVEDP: 0.9 ± 2.1 mmHg
  LVEDP change vs before administration: (−1.55 ± 1.42) mmHg
  LVP: 98 ± 10 mmHg
  LVP change vs before administration: (−4.5 ± 11.7) mmHg
  LVW: 1.14 ± 0.40 kg · m
  LVW change vs before administration: (−0.07 ± 0.11) kg · m
  TPR: 5301 ± 1638 dyn · s/cm^5
  TPR change vs before administration: (77 ± 552) dyn · s/cm^5
  dp/dt: 1124 ± 163 mmHg/s
  dp/dt change vs before administration: (69 ± 73) mmHg/s
  −dp/dt: −809 ± 137 mmHg/s
  −dp/dt change vs before administration: (26 ± 159) mmHg/s
60 min after administration
  CF: 53.7 ± 18.1 ml/min/100 g
  CF change vs before administration: (−3.3 ± 5.1) ml/min/100 g
  CI: 2.10 ± 0.53 L/min/m^2
  CI change vs before administration: (−0.05 ± 0.11) L/min/m^2
  CO: 1.18 ± 0.34 L/min
  CO change vs before administration: (−0.02 ± 0.06) L/min
  CR: 1.51 ± 0.64 mmHg/ml/min/100 g
  CR change vs before administration: (0.10 ± 0.23) mmHg/ml/min/100 g
  LVEDP: 0.8 ± 1.7 mmHg
  LVEDP change vs before administration: (−1.57 ± 1.39) mmHg
  LVP: 98 ± 11 mmHg
  LVP change vs before administration: (−5.3 ± 15.3) mmHg
  LVW: 1.16 ± 0.47 kg · m
  LVW change vs before administration: (−0.05 ± 0.09) kg · m
  TPR: 5278 ± 1714 dyn · s/cm^5
  TPR change vs before administration: (54 ± 458) dyn · s/cm^5
  dp/dt: 1098 ± 192 mmHg/s
  dp/dt change vs before administration: (43 ± 77) mmHg/s
  −dp/dt: −788 ± 126 mmHg/s
  −dp/dt change vs before administration: (48 ± 177) mmHg/s
90 min after administration
  CF: 57.4 ± 19.0 ml/min/100 g
  CF change vs before administration: (0.4 ± 9.5) ml/min/100 g
  CI: 2.15 ± 0.52 L/min/m^2
  CI change vs before administration: (0.01 ± 0.08) L/min/m^2
  CO: 1.21 ± 0.32 L/min
  CO change vs before administration: (0.00 ± 0.05) L/min
  CR: 1.43 ± 0.83 mmHg/ml/min/100 g
  CR change vs before administration: (0.02 ± 0.51) mmHg/ml/min/100 g
  LVEDP: 1.4 ± 0.5 mmHg
  LVEDP change vs before administration: (−0.97 ± 0.77) mmHg
  LVP: 99 ± 15 mmHg
  LVP change vs before administration: (−4.2 ± 18.7) mmHg
  LVW: 1.14 ± 0.44 kg · m
  LVW change vs before administration: (−0.07 ± 0.08) kg · m
  TPR: 4952 ± 1517 dyn · s/cm^5
  TPR change vs before administration: (−272 ± 349) dyn · s/cm^5
  dp/dt: 1100 ± 160 mmHg/s
  dp/dt change vs before administration: (45 ± 73) mmHg/s
  −dp/dt: −762 ± 139 mmHg/s
  −dp/dt change vs before administration: (74 ± 184) mmHg/s
120 min after administration
  CF: 55.6 ± 19.7 ml/min/100 g
  CF change vs before administration: (−1.4 ± 11.1) ml/min/100 g
  CI: 2.14 ± 0.50 L/min/m^2
  CI change vs before administration: (0.00 ± 0.06) L/min/m^2
  CO: 1.20 ± 0.30 L/min
  CO change vs before administration: (0.00 ± 0.03) L/min
  CR: 1.51 ± 0.82 mmHg/ml/min/100 g
  CR change vs before administration: (0.11 ± 0.41) mmHg/ml/min/100 g
  LVEDP: 1.8 ± 0.8 mmHg
  LVEDP change vs before administration: (−0.66 ± 0.47) mmHg
  LVP: 97 ± 14 mmHg
  LVP change vs before administration: (−5.5 ± 19.3) mmHg
  LVW: 1.17 ± 0.45 kg · m
  LVW change vs before administration: (−0.04 ± 0.05) kg · m
  TPR: 5046 ± 1440 dyn · s/cm^5
  TPR change vs before administration: (−178 ± 394) dyn · s/cm^5
  dp/dt: 1088 ± 182 mmHg/s
  dp/dt change vs before administration: (33 ± 59) mmHg/s
  −dp/dt: −748 ± 167 mmHg/s
  −dp/dt change vs before administration: (88 ± 215) mmHg/s
Before administration
  CF: 57 ± 16.1 ml/min/100 g
  CI: 2.14 ± 0.52 L/min/m^2
  CO: 1.20 ± 0.32 L/min
  CR: 1.40 ± 0.49 mmHg/ml/min/100 g
  LVEDP: 2.4 ± 1.1 mmHg
  LVP: 103 ± 12 mmHg
  LVW: 1.21 ± 0.44 kg · m
  TPR: 5224 ± 1465 dyn · s/cm^5
  dp/dt: 1055 ± 157 mmHg/s
  −dp/dt: −836 ± 194 mmHg/s
Vs pre-administration
  Heart rate: decreased slightly
  blood pressure: no significant change
Within 120 min
  CF and CR: no significant changes
